In US20240360177A1, “PEPTIDES WITH ANTIMICROBIAL ACTIVITIES” (priority 2021, published 2024):
Values after ≈ are worked out from the molar mass of the structure shown. Non-standard residues stand in square brackets, D forms with d. Residues, ends and D or L forms follow the SMILES beside them. Ava = NCCCCC(=O)O

What was measured:
[1] = test system: C. albicans; conditions: 24 h
[2] = test system: C. glabrata; conditions: 24 h
[3] = test system: C. parapsilosis; conditions: 24 h
[4] = test system: C. krusei; conditions: 24 h
[5] = test system: C. auris; conditions: 24 h
[6] = test system: C. tropicalis; conditions: 24 h
[7] = test system: C. dubliniensis; conditions: 24 h
[8] = test system: C. neoformans; conditions: 72 h
[9] = test system: C. gattii; conditions: 72 h
[10] = test system: Scedosporium spp.; conditions: 72 h
[11] = test system: Lomentospora prolificans

Row | Structure (SMILES) | MIC C. albicans [1] | MIC C. glabrata [2] | MIC C. parapsilosis [3] | MIC C. krusei [4] | MIC C. auris [5] | MIC C. tropicalis [6] | MIC C. dubliniensis [7] | MIC C. neoformans [8] | MIC C. gattii [9] | MIC Range Scedosporium spp. [10] | MIC Range Lomentospora prolificans [11]
1 | N=C(N)NCCC[C@@H](N)C(=O)N[C@@H](CCCNC(=N)N)C(=O)NCCCCC(=O)N[C@H](CCCNC(=N)N)C(=O)N[C@@H](CCCNC(=N)N)C(=O)N[C@H](CCCNC(=N)N)C(=O)NCCCCC(=O)N[C@H](CCCNC(=N)N)C(=O)N[C@@H](CCCNC(=N)N)C(=O)N[C@H](CCCNC(=N)N)C(=O)NCCCCC(=O)N[C@H](CCCNC(=N)N)C(=O)N[C@@H](CCCNC(=N)N)C(N)=O [SEQ ID NO: 23, rR-(Ava)-rRr-(Ava)-rRr-(Ava)-rR-NH2] (H-[dR]R[Ava][dR]R[dR][Ava][dR]R[dR][Ava][dR]R-NH2) | 2 µg/mL (≈ 1.07 µM) | 4 µg/mL (≈ 2.13 µM) | 0.25 µg/mL (≈ 0.133 µM) | 4 µg/mL (≈ 2.13 µM) | >32 µg/mL | 1 µg/mL (≈ 0.533 µM) | 1 µg/mL (≈ 0.533 µM) | 8 µg/mL (≈ 4.26 µM) | 2 µg/mL (≈ 1.07 µM) | 16 to 32 µg/mL | >32 µg/mL
2 | N=C(N)NCCC[C@@H](N)C(=O)N[C@@H](CCCNC(=N)N)C(=O)N[C@H](CCCNC(=N)N)C(=O)NCCCCC(=O)N[C@H](CCCNC(=N)N)C(=O)N[C@@H](CCCNC(=N)N)C(=O)NCCCCC(=O)N[C@H](CCCNC(=N)N)C(=O)N[C@@H](CCCNC(=N)N)C(=O)N[C@H](CCCNC(=N)N)C(=O)NCCCCC(=O)N[C@H](CCCNC(=N)N)C(=O)N[C@@H](CCCNC(=N)N)C(N)=O [SEQ ID NO: 24, rRr-(Ava)-rR-(Ava)-rRr-(Ava)-rR-NH2] (H-[dR]R[dR][Ava][dR]R[Ava][dR]R[dR][Ava][dR]R-NH2) | 2 µg/mL (≈ 1.07 µM) | 8 µg/mL (≈ 4.26 µM) | 0.25 µg/mL (≈ 0.133 µM) | 8 µg/mL (≈ 4.26 µM) | >32 µg/mL | 1 µg/mL (≈ 0.533 µM) | 1 µg/mL (≈ 0.533 µM) | 16 µg/mL (≈ 8.53 µM) | 4 µg/mL (≈ 2.13 µM) | 8 to 32 µg/mL | >32 µg/mL
3 | N=C(N)NCCC[C@@H](N)C(=O)N[C@@H](CCCNC(=N)N)C(=O)NCCCCC(=O)N[C@H](CCCNC(=N)N)C(=O)N[C@@H](CCCNC(=N)N)C(=O)N[C@H](CCCNC(=N)N)C(=O)NCCCCC(=O)N[C@H](CCCNC(=N)N)C(=O)N[C@@H](CCCNC(=N)N)C(=O)NCCCCC(=O)N[C@H](CCCNC(=N)N)C(=O)N[C@@H](CCCNC(=N)N)C(=O)N[C@H](CCCNC(=N)N)C(N)=O [SEQ ID NO: 25, rR-(Ava)-rRr-(Ava)-rR-(Ava)-rRr-NH2] (H-[dR]R[Ava][dR]R[dR][Ava][dR]R[Ava][dR]R[dR]-NH2) | 4 µg/mL (≈ 2.13 µM) | 8 µg/mL (≈ 4.26 µM) | 0.5 µg/mL (≈ 0.266 µM) | 16 µg/mL (≈ 8.53 µM) | >32 µg/mL | 2 µg/mL (≈ 1.07 µM) | 2 µg/mL (≈ 1.07 µM) | 32 µg/mL (≈ 17.1 µM) | 4 µg/mL (≈ 2.13 µM) | 16 to 32 µg/mL | >32 µg/mL
4 | N=C(N)NCCC[C@@H](N)C(=O)N[C@@H](CCCNC(=N)N)C(=O)NCCCCC(=O)N[C@H](CCCNC(=N)N)C(=O)N[C@@H](CCCNC(=N)N)C(=O)NCCCCC(=O)N[C@H](CCCNC(=N)N)C(=O)N[C@@H](CCCNC(=N)N)C(=O)N[C@H](CCCNC(=N)N)C(=O)NCCCCC(=O)N[C@H](CCCNC(=N)N)C(=O)N[C@@H](CCCNC(=N)N)C(=O)N[C@H](CCCNC(=N)N)C(N)=O [SEQ ID NO: 26, rR-(Ava)-rR-(Ava)-rRr-(Ava)-rRr-NH2] (H-[dR]R[Ava][dR]R[Ava][dR]R[dR][Ava][dR]R[dR]-NH2) | 8 µg/mL (≈ 4.26 µM) | 8 µg/mL (≈ 4.26 µM) | 0.5 µg/mL (≈ 0.266 µM) | 8 µg/mL (≈ 4.26 µM) | >32 µg/mL | 2 µg/mL (≈ 1.07 µM) | 4 µg/mL (≈ 2.13 µM) | 16 µg/mL (≈ 8.53 µM) | 4 µg/mL (≈ 2.13 µM) | 16 to 32 µg/mL | 32 µg/mL (≈ 17.1 µM)
5 | N=C(N)NCCC[C@@H](N)C(=O)N[C@@H](CCCNC(=N)N)C(=O)N[C@H](CCCNC(=N)N)C(=O)NCCCCC(=O)N[C@H](CCCNC(=N)N)C(=O)N[C@@H](CCCNC(=N)N)C(=O)N[C@H](CCCNC(=N)N)C(=O)NCCCCC(=O)N[C@H](CCCNC(=N)N)C(=O)N[C@@H](CCCNC(=N)N)C(=O)NCCCCC(=O)N[C@H](CCCNC(=N)N)C(=O)N[C@@H](CCCNC(=N)N)C(N)=O [SEQ ID NO: 27, rRr-(Ava)-rRr-(Ava)-rR-(Ava)-rR-NH2] (H-[dR]R[dR][Ava][dR]R[dR][Ava][dR]R[Ava][dR]R-NH2) | 2 µg/mL (≈ 1.07 µM) | 8 µg/mL (≈ 4.26 µM) | 0.25 µg/mL (≈ 0.133 µM) | 8 µg/mL (≈ 4.26 µM) | >32 µg/mL | 1 µg/mL (≈ 0.533 µM) | 1 µg/mL (≈ 0.533 µM) | 8 µg/mL (≈ 4.26 µM) | 2 µg/mL (≈ 1.07 µM) | 8 to 16 µg/mL | 32 µg/mL (≈ 17.1 µM)
6 | N=C(N)NCCC[C@@H](N)C(=O)N[C@@H](CCCNC(=N)N)C(=O)N[C@H](CCCNC(=N)N)C(=O)N1CCC[C@H]1C(=O)N[C@H](CCCNC(=N)N)C(=O)N[C@@H](CCCNC(=N)N)C(=O)N1CCC[C@H]1C(=O)N[C@H](CCCNC(=N)N)C(=O)N[C@@H](CCCNC(=N)N)C(=O)N[C@H](CCCNC(=N)N)C(=O)N1CCC[C@H]1C(=O)N[C@H](CCCNC(=N)N)C(=O)N[C@@H](CCCNC(=N)N)C(N)=O [SEQ ID NO: 68, rRr-P-rR-P-rRr-P-rR-NH2] (H-[dR]R[dR]P[dR]RP[dR]R[dR]P[dR]R-NH2) | 0.25 µg/mL (≈ 0.134 µM) | 2 µg/mL (≈ 1.07 µM) | 0.5 µg/mL (≈ 0.267 µM) | 2 µg/mL (≈ 1.07 µM) | >32 µg/mL | 1 µg/mL (≈ 0.535 µM) | 0.5 µg/mL (≈ 0.267 µM) | 8 µg/mL (≈ 4.28 µM) | 2 µg/mL (≈ 1.07 µM) | 8 µg/mL (≈ 4.28 µM) | >32 µg/mL
7 | N=C(N)NCCC[C@@H](N)C(=O)N[C@@H](CCCNC(=N)N)C(=O)N[C@H](CCCNC(=N)N)C(=O)N1CCC[C@H]1C(=O)N[C@H](CCCNC(=N)N)C(=O)N[C@@H](CCCNC(=N)N)C(=O)N[C@H](CCCNC(=N)N)C(=O)N1CCC[C@H]1C(=O)N[C@H](CCCNC(=N)N)C(=O)N[C@@H](CCCNC(=N)N)C(=O)N1CCC[C@H]1C(=O)N[C@H](CCCNC(=N)N)C(=O)N[C@@H](CCCNC(=N)N)C(N)=O [SEQ ID NO: 69, rRr-P-rRr-P-rR-P-rR-NH2] (H-[dR]R[dR]P[dR]R[dR]P[dR]RP[dR]R-NH2) | 0.25 µg/mL (≈ 0.134 µM) | 2 µg/mL (≈ 1.07 µM) | 0.5 µg/mL (≈ 0.267 µM) | 1 µg/mL (≈ 0.535 µM) | >32 µg/mL | 0.5 µg/mL (≈ 0.267 µM) | 0.25 µg/mL (≈ 0.134 µM) | 8 µg/mL (≈ 4.28 µM) | 2 µg/mL (≈ 1.07 µM) | 8 to 16 µg/mL | 32 µg/mL (≈ 17.1 µM)
8 | N=C(N)NCCC[C@@H](N)C(=O)N[C@@H](CCCNC(=N)N)C(=O)N1CCC[C@H]1C(=O)N[C@H](CCCNC(=N)N)C(=O)N[C@@H](CCCNC(=N)N)C(=O)N[C@H](CCCNC(=N)N)C(=O)N1CCC[C@H]1C(=O)N[C@H](CCCNC(=N)N)C(=O)N[C@@H](CCCNC(=N)N)C(=O)N[C@H](CCCNC(=N)N)C(=O)N1CCC[C@H]1C(=O)N[C@H](CCCNC(=N)N)C(=O)N[C@@H](CCCNC(=N)N)C(N)=O [SEQ ID NO: 71, rR-P-rRr-P-rRr-P-rR-NH2] (H-[dR]RP[dR]R[dR]P[dR]R[dR]P[dR]R-NH2) | 0.5 µg/mL (≈ 0.267 µM) | 1 µg/mL (≈ 0.535 µM) | 0.25 µg/mL (≈ 0.134 µM) | 2 µg/mL (≈ 1.07 µM) | >32 µg/mL | 0.5 µg/mL (≈ 0.267 µM) | 1 µg/mL (≈ 0.535 µM) | 8 µg/mL (≈ 4.28 µM) | 4 µg/mL (≈ 2.14 µM) | 4 to 8 µg/mL | 8 µg/mL (≈ 4.28 µM)
